Data on 37 compounds can be found in patent US20140120083A1, “TREATMENT OF CANCERS USING PI3 KINASE ISOFORM MODULATORS” (INFINITY PHARMACEUTICALS, INC., priority 2012, published 2014).

Type in all cases: biochemical
Assay [1] addresses PI3K β (Homo sapiens, UniProt P42338). Briefly: In vitro IC50, PI3K β. The text has this:
(§1) An exemplary system is PI 3-Kinase (human) HTRF™ Assay from Upstate.

Assay [2] deals with T1, PI3K α (Homo sapiens, UniProt P42336).
T1 construct: purchased Upstate
Briefly: In vitro IC50, PI3K α.
Text: as §1

For assay [3], the target named is PI3K δ (Homo sapiens, UniProt O00329). Briefly: In vitro IC50, PI3K δ. On the set-up: purchased Upstate.
Text: as §1

The target of assay [4] is T2, PI3K γ (Homo sapiens, UniProt P48736).
T2 construct: purchased Sigma
In words: In vitro IC50, PI3K γ.
Text: as §1

Some results are limits rather than exact numbers.

A word on the IC50: it is the concentration needed to halve the response being measured. A higher IC50 goes with weaker potency in that assay.

PI3K β, sequence (P42338 whole entry): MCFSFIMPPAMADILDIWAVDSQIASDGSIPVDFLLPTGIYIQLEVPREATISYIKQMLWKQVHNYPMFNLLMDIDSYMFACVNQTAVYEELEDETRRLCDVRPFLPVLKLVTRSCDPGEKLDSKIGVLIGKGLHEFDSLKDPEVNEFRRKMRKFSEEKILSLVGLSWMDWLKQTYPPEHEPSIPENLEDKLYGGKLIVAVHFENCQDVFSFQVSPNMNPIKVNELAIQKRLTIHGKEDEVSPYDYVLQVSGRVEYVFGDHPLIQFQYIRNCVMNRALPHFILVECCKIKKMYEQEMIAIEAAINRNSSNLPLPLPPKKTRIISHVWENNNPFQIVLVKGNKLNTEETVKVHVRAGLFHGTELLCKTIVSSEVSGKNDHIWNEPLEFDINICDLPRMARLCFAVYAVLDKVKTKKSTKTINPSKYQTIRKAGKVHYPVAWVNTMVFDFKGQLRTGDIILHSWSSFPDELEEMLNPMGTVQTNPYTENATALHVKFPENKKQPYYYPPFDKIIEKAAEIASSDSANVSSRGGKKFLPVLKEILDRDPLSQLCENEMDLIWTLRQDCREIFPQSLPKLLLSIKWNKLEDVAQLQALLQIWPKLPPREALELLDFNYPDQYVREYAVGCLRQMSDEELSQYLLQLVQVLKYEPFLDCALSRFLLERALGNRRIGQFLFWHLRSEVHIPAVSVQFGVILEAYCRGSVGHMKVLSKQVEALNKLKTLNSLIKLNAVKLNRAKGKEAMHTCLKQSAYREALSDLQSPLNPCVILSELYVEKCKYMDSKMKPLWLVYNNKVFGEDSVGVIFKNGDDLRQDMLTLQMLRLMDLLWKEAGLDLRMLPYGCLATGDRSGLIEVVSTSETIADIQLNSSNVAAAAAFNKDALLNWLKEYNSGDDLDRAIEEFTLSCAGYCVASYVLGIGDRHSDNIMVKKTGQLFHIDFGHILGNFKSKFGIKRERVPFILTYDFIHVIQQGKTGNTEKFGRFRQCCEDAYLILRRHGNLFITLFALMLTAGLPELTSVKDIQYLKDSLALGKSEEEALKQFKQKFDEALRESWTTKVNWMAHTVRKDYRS
T1 sequence (P42336 whole entry): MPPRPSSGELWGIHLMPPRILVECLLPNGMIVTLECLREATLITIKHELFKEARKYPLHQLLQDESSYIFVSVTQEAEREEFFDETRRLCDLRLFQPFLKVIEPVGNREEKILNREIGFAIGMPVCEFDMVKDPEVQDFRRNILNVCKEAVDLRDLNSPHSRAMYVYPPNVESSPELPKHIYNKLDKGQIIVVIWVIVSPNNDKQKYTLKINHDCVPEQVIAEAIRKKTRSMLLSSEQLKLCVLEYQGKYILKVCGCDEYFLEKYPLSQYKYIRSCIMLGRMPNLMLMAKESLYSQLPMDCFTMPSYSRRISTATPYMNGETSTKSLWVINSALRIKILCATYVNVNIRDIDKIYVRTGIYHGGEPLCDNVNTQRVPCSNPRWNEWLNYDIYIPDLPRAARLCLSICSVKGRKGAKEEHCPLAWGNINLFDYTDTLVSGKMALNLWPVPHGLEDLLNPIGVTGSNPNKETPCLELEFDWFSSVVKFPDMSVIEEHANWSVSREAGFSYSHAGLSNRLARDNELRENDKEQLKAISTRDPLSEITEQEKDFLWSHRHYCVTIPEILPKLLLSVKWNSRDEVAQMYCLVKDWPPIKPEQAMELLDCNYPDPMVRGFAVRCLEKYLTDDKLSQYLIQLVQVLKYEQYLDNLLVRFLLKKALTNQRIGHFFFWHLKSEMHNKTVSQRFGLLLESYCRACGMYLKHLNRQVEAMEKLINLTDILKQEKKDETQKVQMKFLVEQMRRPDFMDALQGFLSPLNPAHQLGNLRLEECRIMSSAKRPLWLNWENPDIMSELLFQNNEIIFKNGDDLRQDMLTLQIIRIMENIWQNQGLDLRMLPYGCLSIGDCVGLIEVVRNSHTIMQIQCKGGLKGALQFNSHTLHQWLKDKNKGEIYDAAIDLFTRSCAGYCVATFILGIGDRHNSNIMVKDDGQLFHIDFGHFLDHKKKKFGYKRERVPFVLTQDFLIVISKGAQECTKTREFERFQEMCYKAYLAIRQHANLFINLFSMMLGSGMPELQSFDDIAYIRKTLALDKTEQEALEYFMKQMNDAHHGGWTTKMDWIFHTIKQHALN
T1 sequence (P27986 whole entry partner): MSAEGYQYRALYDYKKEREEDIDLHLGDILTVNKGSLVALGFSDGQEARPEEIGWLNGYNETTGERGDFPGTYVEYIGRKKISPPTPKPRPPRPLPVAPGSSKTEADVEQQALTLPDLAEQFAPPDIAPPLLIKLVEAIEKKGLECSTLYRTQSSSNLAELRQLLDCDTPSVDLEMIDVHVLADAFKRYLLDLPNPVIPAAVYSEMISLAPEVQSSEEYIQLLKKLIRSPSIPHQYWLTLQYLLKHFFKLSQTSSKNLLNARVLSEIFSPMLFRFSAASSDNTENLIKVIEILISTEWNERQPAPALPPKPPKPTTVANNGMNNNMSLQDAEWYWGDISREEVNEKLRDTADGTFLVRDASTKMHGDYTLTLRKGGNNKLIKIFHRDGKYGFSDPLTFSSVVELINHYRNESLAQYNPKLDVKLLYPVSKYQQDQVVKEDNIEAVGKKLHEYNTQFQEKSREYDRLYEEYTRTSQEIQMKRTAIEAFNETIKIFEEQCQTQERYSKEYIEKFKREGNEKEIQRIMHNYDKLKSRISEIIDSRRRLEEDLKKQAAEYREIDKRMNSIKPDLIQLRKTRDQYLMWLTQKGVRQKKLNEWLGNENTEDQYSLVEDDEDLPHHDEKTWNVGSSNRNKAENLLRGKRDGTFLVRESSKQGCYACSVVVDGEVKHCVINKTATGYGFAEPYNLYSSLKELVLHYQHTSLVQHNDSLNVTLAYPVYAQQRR
T2 sequence (P48736 whole entry): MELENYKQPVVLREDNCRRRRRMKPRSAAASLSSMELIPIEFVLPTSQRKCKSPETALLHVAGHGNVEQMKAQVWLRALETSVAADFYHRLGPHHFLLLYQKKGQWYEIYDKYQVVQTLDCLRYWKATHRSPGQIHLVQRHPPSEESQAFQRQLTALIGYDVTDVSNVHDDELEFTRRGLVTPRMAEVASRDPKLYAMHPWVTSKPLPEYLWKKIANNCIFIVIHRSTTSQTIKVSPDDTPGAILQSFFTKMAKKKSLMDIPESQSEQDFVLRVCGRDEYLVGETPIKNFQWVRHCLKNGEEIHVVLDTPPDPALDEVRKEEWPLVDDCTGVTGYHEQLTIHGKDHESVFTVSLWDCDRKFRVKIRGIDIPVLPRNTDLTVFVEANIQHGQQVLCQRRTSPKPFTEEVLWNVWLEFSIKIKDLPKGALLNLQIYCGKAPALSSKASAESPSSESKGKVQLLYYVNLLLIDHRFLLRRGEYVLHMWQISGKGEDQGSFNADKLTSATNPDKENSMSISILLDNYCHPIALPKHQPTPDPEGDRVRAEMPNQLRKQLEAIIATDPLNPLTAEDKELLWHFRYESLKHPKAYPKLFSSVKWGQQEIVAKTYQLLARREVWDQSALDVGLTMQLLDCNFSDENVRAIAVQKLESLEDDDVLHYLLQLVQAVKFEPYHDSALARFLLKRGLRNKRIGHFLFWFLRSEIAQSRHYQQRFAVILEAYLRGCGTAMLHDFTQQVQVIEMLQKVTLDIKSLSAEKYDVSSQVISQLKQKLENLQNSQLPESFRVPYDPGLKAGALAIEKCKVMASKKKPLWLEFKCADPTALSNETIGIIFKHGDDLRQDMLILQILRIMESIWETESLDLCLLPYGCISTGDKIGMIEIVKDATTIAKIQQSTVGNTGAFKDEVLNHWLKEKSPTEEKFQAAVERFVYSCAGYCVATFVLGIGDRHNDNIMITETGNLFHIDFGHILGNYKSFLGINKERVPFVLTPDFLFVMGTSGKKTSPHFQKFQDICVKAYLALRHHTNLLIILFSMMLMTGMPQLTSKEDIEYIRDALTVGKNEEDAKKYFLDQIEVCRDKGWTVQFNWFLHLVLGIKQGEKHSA
PI3K δ, sequence (O00329 whole entry): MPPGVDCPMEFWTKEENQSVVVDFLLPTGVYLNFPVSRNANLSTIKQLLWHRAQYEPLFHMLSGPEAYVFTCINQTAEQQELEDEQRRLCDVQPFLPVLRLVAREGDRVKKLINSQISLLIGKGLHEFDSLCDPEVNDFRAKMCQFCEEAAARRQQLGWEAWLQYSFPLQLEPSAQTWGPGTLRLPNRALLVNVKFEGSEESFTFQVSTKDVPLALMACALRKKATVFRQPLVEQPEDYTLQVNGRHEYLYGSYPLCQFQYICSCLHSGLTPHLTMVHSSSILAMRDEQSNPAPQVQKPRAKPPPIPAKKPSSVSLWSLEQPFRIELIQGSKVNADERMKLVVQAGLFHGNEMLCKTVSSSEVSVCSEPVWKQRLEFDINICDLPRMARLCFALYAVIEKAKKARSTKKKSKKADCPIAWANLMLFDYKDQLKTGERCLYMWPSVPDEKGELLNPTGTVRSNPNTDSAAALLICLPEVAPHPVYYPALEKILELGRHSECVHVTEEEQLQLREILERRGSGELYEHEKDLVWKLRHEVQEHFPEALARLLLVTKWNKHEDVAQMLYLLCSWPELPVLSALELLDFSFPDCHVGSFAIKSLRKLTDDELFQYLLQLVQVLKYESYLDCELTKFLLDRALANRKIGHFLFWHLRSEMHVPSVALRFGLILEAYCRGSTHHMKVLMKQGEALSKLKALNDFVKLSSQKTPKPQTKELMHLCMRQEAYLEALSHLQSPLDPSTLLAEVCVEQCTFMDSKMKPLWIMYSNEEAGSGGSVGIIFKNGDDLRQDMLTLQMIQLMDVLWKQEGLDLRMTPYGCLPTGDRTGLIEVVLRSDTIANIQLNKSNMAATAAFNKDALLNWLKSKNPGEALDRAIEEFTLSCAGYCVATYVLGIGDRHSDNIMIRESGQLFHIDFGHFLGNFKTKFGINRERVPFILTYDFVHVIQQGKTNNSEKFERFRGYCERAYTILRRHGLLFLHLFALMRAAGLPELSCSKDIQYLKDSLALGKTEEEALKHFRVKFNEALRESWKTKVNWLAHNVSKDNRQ
PI3K δ, sequence (P27986 whole entry partner): as the sequence (P27986 whole entry partner) above

Take `COC(=O)c1nn(CC2=Cc3cccc(C)c3C(=O)C2c2ccccc2C)c2ncnc(N)c12` (stereo not shown) [Compound 299]: the IC50 in assay [1] was more than 10000 nM; in assay [2], more than 10000 nM; in assay [3], less than 1000 nM; in assay [4], less than 10000 nM.
Consider `Cc1cccc2cc(Cn3nc(I)c4c(N)ncnc43)n(C3CCCCC3)c(=O)c12` [Compound 87], for which the IC50 in assay [1] was more than 10000 nM; in assay [2], more than 10000 nM; in assay [3], less than 1000 nM; in assay [4], less than 100 nM.
For the compound `Cc1cccc2cc([C@H](C)Nc3ncnc4[nH]cnc34)n(-c3ccc(F)cc3)c(=O)c12` [Compound 260], the 50% inhibitory concentration (IC50) in assay [1] was less than 100 nM; in assay [2], less than 1000 nM; in assay [3], less than 100 nM; in assay [4], less than 100 nM.
Consider `Cc1cccc2cc(Cn3nc(-c4cc(O)cc(F)c4)c4c(N)ncnc43)n(-c3ccccc3F)c(=O)c12` [Compound 3], for which the IC50 in assay [1] is less than 10000 nM; in assay [2], less than 10000 nM; in assay [3], less than 100 nM; in assay [4], less than 100 nM.
`Cc1cccc2cc(Cn3nc(-c4cccc(O)c4)c4c(N)ncnc43)n(-c3ccccc3Cl)c(=O)c12` [Compound 96]: the IC50 in assay [1] is less than 10000 nM; in assay [2] it was more than 10000 nM; in assay [3], less than 100 nM; in assay [4], less than 100 nM.
For `Cc1ccccc1-n1c(Cn2nc(I)c3c(N)ncnc32)cc2cccc(F)c2c1=O` [Compound 42], the IC50 in assay [1] is more than 10000 nM; in assay [2] it was more than 10000 nM; in assay [3], less than 1000 nM; in assay [4] it was less than 10000 nM.
On to `Cc1cccnc1-n1c(Cn2nc(C#C[C@@H](C)O)c3c(N)ncnc32)cc2cccc(C)c2c1=O` [Compound 69], for which the half-maximal inhibitory concentration (IC50) was more than 10000 nM in assay [1], more than 10000 nM in assay [2], less than 1000 nM in assay [3] and more than 10000 nM in assay [4].
For `Cc1cccc2cc(Cn3nc(-c4ccc5sc(N)nc5c4)c4c(N)ncnc43)n(-c3ccccc3)c(=O)c12` [Compound 277], the IC50 in assay [1] is less than 1000 nM; in assay [2] it was less than 1000 nM; in assay [3], less than 100 nM; in assay [4] it was less than 100 nM.
Turning to `Cc1cccc2cc([C@H](C)Nc3nc(N)ncc3F)n(C3CC3)c(=O)c12` [Compound 281], the IC50 in assay [1] was less than 10000 nM; in assay [2] it was more than 10000 nM; in assay [3] it was less than 10000 nM; in assay [4], more than 10000 nM.
On to `Cc1cccc2cc(Cn3nc(C#C[C@@H](C)O)c4c(N)ncnc43)n(C3CC3)c(=O)c12` [Compound 100], for which the IC50 in assay [1] was less than 1000 nM; in assay [2] it was more than 10000 nM; in assay [3] it was less than 100 nM; in assay [4] it was less than 1000 nM.
Regarding `Cc1cccc2cc([C@H](C)Nc3ncnc4[nH]ccc34)n(-c3ccccc3)c(=O)c12` [Compound 247], the IC50 in assay [1] was less than 10000 nM; in assay [2], more than 10000 nM; in assay [3], less than 100 nM; in assay [4], less than 100 nM.
Consider `Cc1ccccc1-n1c(Cn2nc(/C=C3/SC(=O)NC3=O)c3c(N)ncnc32)cc2cccc(C)c2c1=O` [Compound 173], for which the IC50 is less than 10000 nM in assay [1], less than 10000 nM in assay [2], less than 100 nM in assay [3] and less than 100 nM in assay [4].
Consider `Cc1cccc2cc(Cn3nc(I)c4c(N)ncnc43)n(C3CCCC3)c(=O)c12` [Compound 57], for which the half-maximal inhibitory concentration (IC50) in assay [1] is more than 10000 nM; in assay [2], more than 10000 nM; in assay [3], less than 1000 nM; in assay [4] it was less than 10000 nM.
With `Cc1cccc2cc(Cn3nc(-c4cc(O)cc(F)c4)c4c(N)ncnc43)n(C(C)C)c(=O)c12` [Compound 66], the IC50 in assay [1] was less than 1000 nM; in assay [2], less than 10000 nM; in assay [3] it was less than 100 nM; in assay [4] it was less than 1000 nM.
For `Cc1cccc2cc(Cn3nc(-c4cccc(O)c4)c4c(N)ncnc43)n(-c3ccccc3OCCN3CCOCC3)c(=O)c12` [Compound 109], the IC50 in assay [1] was more than 10000 nM; in assay [2], more than 10000 nM; in assay [3], less than 100 nM; in assay [4], less than 1000 nM.
In the case of `Cc1ccccc1-n1c(Cn2nc(-c3ccc(F)cc3)c3c(N)ncnc32)cc2cccc(C)c2c1=O` [Compound 27], the IC50 in assay [1] is more than 10000 nM; in assay [2] it was more than 10000 nM; in assay [3], less than 10000 nM; in assay [4], less than 1000 nM.
As to `Cc1cccc2cc(Cn3nc(Br)c4c(N)ncnc43)n(-c3ccccc3F)c(=O)c12` [Compound 35], the half-inhibitory concentration (IC50) is more than 10000 nM in assay [1], more than 10000 nM in assay [2], less than 1000 nM in assay [3] and less than 10000 nM in assay [4].
As for `Cc1cccc2cc(Cn3nc(-c4cn[nH]c4)c4c(N)ncnc43)n(-c3ccccc3Cl)c(=O)c12` [Compound 188], the concentration for half-maximal inhibition (IC50) in assay [1] was more than 10000 nM; in assay [2], more than 10000 nM; in assay [3], less than 100 nM; in assay [4] it was less than 1000 nM.
For `Cc1ccccc1-n1c(Cn2nc(-c3ccc4oc(N)nc4c3)c3c(N)ncnc32)cc2cccc(C)c2c1=O` [Compound 151], the 50% inhibitory concentration (IC50) in assay [1] was less than 10000 nM; in assay [2], less than 1000 nM; in assay [3], less than 100 nM; in assay [4] it was less than 100 nM.
Turning to `Cc1cccc2cc([C@H](C)Nc3nc(N)ncc3Cl)n(C3CC3)c(=O)c12` [Compound 267], the half-maximal inhibitory concentration (IC50) was less than 1000 nM in assay [1], more than 10000 nM in assay [2], less than 100 nM in assay [3] and less than 1000 nM in assay [4].
For the compound `Cc1cccc2cc(C(C)Nc3ncnc4[nH]cnc34)n(-c3cc(F)cc(F)c3)c(=O)c12` (stereo not shown) [Compound 222], the IC50 in assay [1] was more than 10000 nM; in assay [2], more than 10000 nM; in assay [3], less than 100 nM; in assay [4], less than 1000 nM.
Take `CCC(Nc1ncnc2[nH]cnc12)c1cc2ccccc2c(=O)n1-c1ccccc1` (stereo not shown) [Compound 221]: the half-maximal inhibitory concentration (IC50) is more than 10000 nM in assay [1], more than 10000 nM in assay [2], less than 100 nM in assay [3] and less than 10000 nM in assay [4].
Take `Cc1cccc2cc(Cn3nc(-c4cn[nH]c4)c4c(N)ncnc43)n(-c3cccc(F)c3)c(=O)c12` [Compound 166]: the concentration for half-maximal inhibition (IC50) is more than 10000 nM in assay [1], more than 10000 nM in assay [2], less than 100 nM in assay [3] and less than 1000 nM in assay [4].
On to `Cc1ccccc1-n1c(Cn2nc(-c3ccc(F)c(O)c3)c3c(N)ncnc32)cc2ccccc2c1=O` [Compound 54], for which the IC50 was more than 10000 nM in assay [1], more than 10000 nM in assay [2], less than 100 nM in assay [3] and less than 100 nM in assay [4].
`Cc1cccc2cc([C@H](C)Nc3nc(Cl)nc4[nH]cnc34)n(-c3ccccc3)c(=O)c12` [Compound 244]: the concentration for half-maximal inhibition (IC50) in assay [1] was less than 10000 nM; in assay [2], less than 10000 nM; in assay [3], less than 100 nM; in assay [4], less than 100 nM.
Turning to `C=C(C)c1nn(Cc2cc3cccc(C)c3c(=O)n2-c2ccccc2)c2ncnc(N)c12` [Compound 316], the 50% inhibitory concentration (IC50) in assay [1] was less than 10000 nM; in assay [2] it was more than 10000 nM; in assay [3], less than 100 nM; in assay [4] it was less than 1000 nM.
In the same order, the values of `COc1ccc(-c2nn(Cc3cc4cccc(C)c4c(=O)n3-c3ccccc3C)c3ncnc(N)c23)cc1OC` [Compound 44] are more than 10000 nM, more than 10000 nM, less than 1000 nM and less than 100 nM.
In the same order, the values of `Cc1cccc2cc(Cn3nc(-c4ccc5oc(N)nc5c4)c4c(N)ncnc43)n(C3CC3)c(=O)c12` [Compound 201] are less than 1000 nM, less than 100 nM, less than 100 nM and less than 100 nM.
In the same order, the values of `Cc1cccc2cc(C(C)Nc3ncnc4[nH]cnc34)n(-c3ccccc3F)c(=O)c12` (stereo not shown) [Compound 167] are less than 10000 nM, more than 10000 nM, less than 100 nM and less than 100 nM.
Regarding `Cc1cccc2cc(Cn3nc(-c4cn[nH]c4)c4c(N)ncnc43)n(-c3ccccc3C(F)(F)F)c(=O)c12` [Compound 214], the 50% inhibitory concentration (IC50) in assay [1] was less than 10000 nM; in assay [2], more than 10000 nM; in assay [3] it was less than 100 nM; in assay [4] it was less than 1000 nM.
The corresponding values for `Cc1cccc2cc(Cn3nc(Cl)c4c(N)ncnc43)n(-c3ccccc3F)c(=O)c12` [Compound 34] are more than 10000 nM, more than 10000 nM, less than 1000 nM and less than 10000 nM.
In the same order, the values of `CCC(Nc1ncnc2[nH]cnc12)c1cc2cccc(C)c2c(=O)n1-c1ccc(F)cc1` (stereo not shown) [Compound 223] are less than 10000 nM, less than 10000 nM, less than 100 nM and less than 100 nM.
The corresponding values for `Cc1cccc2cc([C@H](C)Nc3nc(N)nc4[nH]cnc34)n(-c3ccccc3)c(=O)c12` [Compound 323] are less than 100 nM, less than 1000 nM, less than 100 nM and less than 100 nM.
With `Cc1cccc2cc([C@H](C)NC3CCOCC3)n(-c3ccccc3)c(=O)c12` [Compound 259], the IC50 in assay [1], in assay [2], in assay [3] and in assay [4] was more than 10000 nM each time.
On to `Cc1cccc2cc(Cn3nc(-c4cc(O)cc(F)c4)c4c(N)ncnc43)n(C3CC3)c(=O)c12` [Compound 101], for which the IC50 in assay [1] was less than 100 nM; in assay [2] it was less than 1000 nM; in assay [3] it was less than 100 nM; in assay [4], less than 100 nM.
In the case of `Cc1ccccc1-n1c(Cn2nc(-c3ccc(Cl)c(O)c3)c3c(N)ncnc32)cc2ccccc2c1=O` [Compound 52], the IC50 in assay [1] was more than 10000 nM; in assay [2], more than 10000 nM; in assay [3], less than 100 nM; in assay [4], less than 100 nM.
For `CCn1c(Cn2nc(-c3ccc4nc(NC(C)=O)sc4c3)c3c(N)ncnc32)cc2cccc(C)c2c1=O` [Compound 176], the half-inhibitory concentration (IC50) was less than 1000 nM in assay [1], less than 100 nM in assay [2], less than 100 nM in assay [3] and less than 100 nM in assay [4].
